Test results: patent US20190247322A1, “Active Mixture of 1,2-hexanediol and 1,2-octanediol” (Symrise AG, priority 2015, published 2019)

Columns and labels:
[1] = water (20° dH) at 20° C., solid active agent; cited from earlier work
[2] = test system: Staphylococcus aureus; test: Antimicrobial activity, minimum inhibitory concentration; assay type: cell-based
From the text: (§1) Antimicrobial activity of a mixture of 1,2-hexanediol and 1,2-octanediol (1:1) was investigated compared to the individual 1,2-diols with regard to 5 prominent microorganisms:
(§2) EC Echerichia coli PA Pseudomonas aeruginosa SA Staphylococcus aureus CA Candida albicans AN Aspergillus niger
(§3) Shown are the minimum inhibitory concentrations (MICs) in percent.

[3] = test system: Echerichia coli; test: as above; assay type: cell-based
From the text: as §1, §2, §3

[4] = test system: Pseudomonas aeruginosa; test: as above; assay type: cell-based
From the text: as §1, §2, §3

[5] = test system: Aspergillus niger; test: as above; assay type: cell-based
From the text: as §1, §2, §3

[6] = test system: Candida albicans; test: as above; assay type: cell-based
From the text: as §1, §2, §3

| Structure (SMILES) | solubility in water [1] | minimum inhibitory concentration (MIC), SA [2] [%] | minimum inhibitory concentration (MIC), EC [3] [%] | minimum inhibitory concentration (MIC), PA [4] [%] | minimum inhibitory concentration (MIC), AN [5] [%] | minimum inhibitory concentration (MIC), CA [6] [%] |
| --- | --- | --- | --- | --- | --- | --- |
| Nc1nc2c(ncn2COCCO)c(=O)[nH]1 [Acyclovir, 2-Amino-1,9-dihydro-9-((2-hydroxyethoxy)methyl)-6H-Purin-6-one] | less than 5 g/L | – | – | – | – | – |
| CCCCC(O)CO (centres unmarked) [Comparative Example C1, 1,2-hexanediol] | – | 2.50 | 1.25 | 0.63 | 0.63 | 1.25 |
| CCCCCCC(O)CO (centres unmarked) [Comparative Example C2, 1,2-octanediol] | – | 1.25 | 0.63 | 0.63 | 0.16 | 0.31 |
